From patent US6555333B1, “Broad spectrum fastidious organism culture medium” (priority 2002, dated 2003)
Read-outs that look alike come from different tables or passages of the source. One block for each compound: values may come before it.

Assays:
[1] = test system: Haemophilus influenzae; assay: MIC testing (Etest strip) on the culture medium of Example 1; assay type: cell-based; conditions: for Observed MIC Breakpoints I: I = intermediate; for Observed MIC Breakpoints R: R = resistant; for Observed MIC Breakpoints S: S = susceptible
Source text: (§1) The culture medium of the invention was used in both Minimum Inhibitory Concentration (MIC) testing and Bauer-Kirby Disk Susceptibility testing for the pathogenic bacteria noted in the table below with the antimicrobial agents noted therein using the protocol and standards set forth in NCCLS Bulletin No. M2-A7 and in the Supplemental Tables appendix thereto, the disclosures of which are incorporated herein by reference.
(§2) The general procedure was as follows: pathogenic bacteria specimens were obtained from American Type Culture Collection control lots and 10 isolates were obtained from all species except Campylobacter, from which 6 isolates were obtained. Petri dishes 150 mm in diameter were autoclaved and filled with the culture medium of Example 1 and brought to room temperature. Each plate was then swab-inoculated with a suspension of one of the pathogenic bacteria equivalent to a 0.5 McFarland Standard, and then the antimicrobial-impregnated disk or antimicrobial-impregnated strip for IC measurement (Etest strip from Biodisk AB, of Solna, Sweden) were pressed into the surface of the culture medium. The plates were incubated at 35° C. for 24 hours in atmospheres containing 5-7% CO2 and the disk diffusion zones were measured, with the exception that plates inoculated with the Campylobacter species were placed into microaerophilic chambers from Mitsubishi Gas & Chemical Co. of Japan and incubated at 35° C. for 48 hours. The tests were conducted in duplicate for each pathogenic bacteria/antimicrobial agent combination on three batches of the culture medium of Example 1, for a total of six tests for each combination. Geometric mean MIC values and arithmetic mean values of zone diameters from the Disk Diffusion tests were calculated from the data, and are reported in the table below.

[2] = test system: Haemophilus influenzae; assay: Bauer-Kirby Disk Susceptibility testing on the culture medium of Example 1; assay type: cell-based; conditions: for Observed Disk Diff. Breakpoints I: I = intermediate; for Observed Disk Diff. Breakpoints R: R = resistant; for Observed Disk Diff. Breakpoints S: S = susceptible
Source text: as §1, §2

[3] = test system: Haemophilus influenzae; conditions: different known culture media; cited from earlier work
[4] = test system: Viridans streptococci; assay: MIC testing (Etest strip) on the culture medium of Example 1; assay type: cell-based; conditions: for Observed MIC Breakpoints R: R = resistant; for Observed MIC Breakpoints I: I = intermediate; for Observed MIC Breakpoints S: S = susceptible
Source text: as §1, §2

[5] = test system: S. pneumoniae; assay: as above; assay type: cell-based; conditions: for Observed MIC Breakpoints R: R = resistant; for Observed MIC Breakpoints S: S = susceptible; for Observed MIC Breakpoints I: I = intermediate
Source text: as §1, §2

[6] = test system: S. pneumoniae; conditions: different known culture media, cited from earlier work
[7] = test system: Viridans streptococci; assay: Bauer-Kirby Disk Susceptibility testing on the culture medium of Example 1; assay type: cell-based; conditions: for Observed Disk Diff. Breakpoints R: R = resistant; for Observed Disk Diff. Breakpoints S: S = susceptible; for Observed Disk Diff. Breakpoints I: I = intermediate
Source text: as §1, §2

[8] = test system: S. pneumoniae; assay: as above; assay type: cell-based; conditions: for Observed Disk Diff. Breakpoints R: R = resistant; for Observed Disk Diff. Breakpoints S: S = susceptible; for Observed Disk Diff. Breakpoints I: I = intermediate
Source text: as §1, §2

[9] = test system: Viridans streptococci; conditions: different known culture media; cited from earlier work
[10] = test system: Campylobacter species; assay: MIC testing (Etest strip) on the culture medium of Example 1; assay type: cell-based; conditions: microaerophilic, 48 hours; for Observed MIC Breakpoints R: R = resistant; for Observed MIC Breakpoints S: S = susceptible
Source text: as §1, §2

[11] = test system: Neisseria gonorrhoeae; assay: as above; assay type: cell-based; conditions: for Observed MIC Breakpoints I: I = intermediate; for Observed MIC Breakpoints R: R = resistant; for Observed MIC Breakpoints S: S = susceptible
Source text: as §1, §2

[12] = test system: Campylobacter species; assay: Bauer-Kirby Disk Susceptibility testing on the culture medium of Example 1; assay type: cell-based; conditions: microaerophilic, 48 hours; for Observed Disk Diff. Breakpoints R: R = resistant; for Observed Disk Diff. Breakpoints S: S = susceptible
Source text: as §1, §2

[13] = test system: Neisseria gonorrhoeae; assay: as above; assay type: cell-based; conditions: for Observed Disk Diff. Breakpoints I: I = intermediate; for Observed Disk Diff. Breakpoints R: R = resistant
Source text: as §1, §2

[14] = test system: Neisseria gonorrhoeae; conditions: different known culture media; cited from earlier work
[15] = test system: β-hemolytic streptococci; assay: MIC testing (Etest strip) on the culture medium of Example 1; assay type: cell-based; conditions: for Observed MIC Breakpoints S: S = susceptible
Source text: as §1, §2

[16] = test system: β-hemolytic streptococci; assay: Bauer-Kirby Disk Susceptibility testing on the culture medium of Example 1; assay type: cell-based; conditions: for Observed Disk Diff. Breakpoints R: R = resistant
Source text: as §1, §2

[17] = test system: β-hemolytic streptococci; conditions: different known culture media; cited from earlier work
[18] = test system: Neisseria meningitides; assay: MIC testing (Etest strip) on the culture medium of Example 1; assay type: cell-based
Source text: as §1, §2

[19] = test system: Neisseria meningitides; assay: Bauer-Kirby Disk Susceptibility testing on the culture medium of Example 1; assay type: cell-based
Source text: as §1, §2

Compound: O=C(N[C@H](CO)[C@H](O)c1ccc([N+](=O)[O-])cc1)C(Cl)Cl [Chloramphenicol]
Observed MIC Breakpoints I [1]: 4 µg/mL
Observed MIC Breakpoints R [1]: ≧8 μg/mL
Observed MIC Breakpoints S [1]: ≦2 μg/mL
Observed Disk Diff. Breakpoints I [2]: 20-24 mm
Observed Disk Diff. Breakpoints R [2]: ≦19 mm
Observed Disk Diff. Breakpoints S [2]: ≧25 mm
Reported MIC Breakpoints [3]: (2-8) μg/mL

Compound: O=C(O)c1cn(C2CC2)c2cc(N3CCNCC3)c(F)cc2c1=O [Ciprofloxacin]
Observed MIC Breakpoints I ([10]; I = intermediate): 1 to 2 µg/mL
Observed MIC Breakpoints R [10]: ≧4 μg/mL
Observed MIC Breakpoints S [10]: ≦0.5 μg/mL
Observed MIC Breakpoints I [11]: 0.12 to 0.5 µg/mL
Observed MIC Breakpoints R [11]: ≧1 μg/mL
Observed MIC Breakpoints S [11]: ≦0.06 μg/mL
Observed Disk Diff. Breakpoints I ([12]; I = intermediate): 19-26 mm
Observed Disk Diff. Breakpoints R [12]: ≦18 mm
Observed Disk Diff. Breakpoints S [12]: ≧27 mm
Observed Disk Diff. Breakpoints I [13]: 25-34 mm
Observed Disk Diff. Breakpoints R [13]: ≦24 mm
Observed Disk Diff. Breakpoints S ([13]; S = susceptible): ≧35 mm
Reported MIC Breakpoints [14]: (0.06-1) μg/mL

Compound: CC[C@H]1OC(=O)[C@H](C)[C@@H](O[C@H]2C[C@@](C)(OC)[C@@H](O)[C@H](C)O2)[C@H](C)[C@@H](O[C@@H]2O[C@H](C)C[C@H](N(C)C)[C@H]2O)[C@](C)(O)C[C@@H](C)C(=O)[C@H](C)[C@@H](O)[C@]1(C)O [Erythromycin]
Observed MIC Breakpoints I [4]: 1 to 32 µg/mL
Observed MIC Breakpoints R [4]: ≧64 μg/mL
Observed MIC Breakpoints S [4]: ≦0.5 μg/mL
Observed MIC Breakpoints R [10]: ≧8 μg/mL
Observed MIC Breakpoints S [10]: ≦4 μg/mL
Observed MIC Breakpoints I [5]: 1 to 32 µg/mL
Observed MIC Breakpoints R [5]: ≧64 μg/mL
Observed MIC Breakpoints S [5]: ≦0.5 μg/mL
Observed MIC Breakpoints I ([15]; I = intermediate): 1 to 32 µg/mL
Observed MIC Breakpoints R ([15]; R = resistant): ≧64 μg/mL
Observed MIC Breakpoints S [15]: ≦0.5 μg/mL
Reported MIC Breakpoints [6]: (0.25-1) μg/mL
Observed Disk Diff. Breakpoints I [7]: 9-23 mm
Observed Disk Diff. Breakpoints R [7]: ≦8 mm
Observed Disk Diff. Breakpoints S [7]: ≧24 mm
Observed Disk Diff. Breakpoints R [12]: ≦20 mm
Observed Disk Diff. Breakpoints S [12]: ≧21 mm
Observed Disk Diff. Breakpoints I [8]: 9-23 mm
Observed Disk Diff. Breakpoints R [8]: ≦8 mm
Observed Disk Diff. Breakpoints S [8]: ≧24 mm
Observed Disk Diff. Breakpoints R [16]: ≦8 mm
Observed Disk Diff. Breakpoints S ([16]; S = susceptible): ≧21 mm
Reported MIC Breakpoints [9]: (0.25-1) μg/mL
Reported MIC Breakpoints [17]: (0.25-1) μg/mL

Compound: CN(C)[C@@H]1C(O)=C(C(N)=O)C(=O)[C@@]2(O)C(O)=C3C(=O)c4c(O)cccc4[C@@](C)(O)[C@H]3C[C@@H]12 [Tetracycline]
Observed MIC Breakpoints I [4]: 2 to 4 µg/mL
Observed MIC Breakpoints R [4]: ≧8 μg/mL
Observed MIC Breakpoints S [4]: ≦1 μg/mL
Observed MIC Breakpoints I [1]: 4 µg/mL
Observed MIC Breakpoints R [1]: ≧8 μg/mL
Observed MIC Breakpoints S [1]: ≦2 μg/mL
Observed MIC Breakpoints I [5]: 2 to 4 µg/mL
Observed MIC Breakpoints R [5]: ≧8 μg/mL
Observed MIC Breakpoints S [5]: ≦1 μg/mL
Observed Disk Diff. Breakpoints I [7]: 18-22 mm
Observed Disk Diff. Breakpoints R [7]: ≦17 mm
Observed Disk Diff. Breakpoints S [7]: ≧23 mm
Observed Disk Diff. Breakpoints I [2]: 19-24 mm
Observed Disk Diff. Breakpoints R [2]: ≦20 mm
Observed Disk Diff. Breakpoints S [2]: ≧25 mm
Observed Disk Diff. Breakpoints I [8]: 14-22 mm
Observed Disk Diff. Breakpoints R [8]: ≦13 mm
Observed Disk Diff. Breakpoints S [8]: ≧23 mm

Compound: Penicillin
Observed MIC Breakpoints I [4]: 2 µg/mL
Observed MIC Breakpoints R [4]: ≧4 μg/mL
Observed MIC Breakpoints S [4]: ≦1 μg/mL
Observed MIC Breakpoints I ([18]; I = intermediate): 0.25 µg/mL
Observed MIC Breakpoints R ([18]; R = resistant): ≧0.5 μg/mL
Observed MIC Breakpoints S ([18]; S = susceptible): ≦0.12 μg/mL
Observed MIC Breakpoints I ([5]; Lower Respiratory Tract): 2 µg/mL
Observed MIC Breakpoints R ([5]; Lower Respiratory Tract): ≧4 μg/mL
Observed MIC Breakpoints S ([5]; Lower Respiratory Tract): ≦1 μg/mL
Observed MIC Breakpoints I ([5]; meningitis): 0.25 to 1 µg/mL
Observed MIC Breakpoints R ([5]; meningitis): ≧2 μg/mL
Observed MIC Breakpoints S ([5]; meningitis): ≦0.12 μg/mL
Observed MIC Breakpoints S [15]: 0.12 µg/mL
Observed MIC Breakpoints I [11]: 0.12 to 1 µg/mL
Observed MIC Breakpoints R [11]: ≧2 μg/mL
Observed MIC Breakpoints S [11]: ≦0.06 μg/mL
Reported MIC Breakpoints ([6]; meningitis): (0.06-2) μg/mL
Observed Disk Diff. Breakpoints I [7]: 20-23 mm
Observed Disk Diff. Breakpoints R [7]: ≦19 mm
Observed Disk Diff. Breakpoints S [7]: ≧24 mm
Observed Disk Diff. Breakpoints I ([19]; I = intermediate): 24-25 mm
Observed Disk Diff. Breakpoints R ([19]; R = resistant): ≦23 mm
Observed Disk Diff. Breakpoints S ([19]; S = susceptible): ≧26 mm
Observed Disk Diff. Breakpoints R [16]: ≦26 mm
Observed Disk Diff. Breakpoints I [13]: 24-38 mm
Observed Disk Diff. Breakpoints R [13]: ≦23 mm
Reported MIC Breakpoints [14]: (0.06-2) μg/mL
Reported MIC Breakpoints [9]: (0.12-4) μg/mL

Continued, in another order:

Observed MIC Breakpoints I [1]: 8 µg/mL
Observed MIC Breakpoints R [1]: ≧16 μg/mL
Observed MIC Breakpoints S [1]: ≦4 μg/mL
Compound: CC1(C)S[C@@H]2[C@H](NC(=O)[C@H](N)c3ccccc3)C(=O)N2[C@H]1C(=O)O [Ampicillin]
Observed Disk Diff. Breakpoints I [2]: 13-16 mm
Observed Disk Diff. Breakpoints R [2]: ≦12 mm
Observed Disk Diff. Breakpoints S [2]: ≧17 mm
Reported MIC Breakpoints [3]: (1-4) μg/mL

Observed MIC Breakpoints R [4]: ≧8 μg/mL
Observed MIC Breakpoints R ([5]; Lower Respiratory Tract): ≧8 μg/mL
Observed MIC Breakpoints S ([5]; Lower Respiratory Tract): ≦4 μg/mL
Observed MIC Breakpoints I ([5]; meningitis): 1 µg/mL
Observed MIC Breakpoints R ([5]; meningitis): ≧2 μg/mL
Observed MIC Breakpoints S ([5]; meningitis): ≦0.5 μg/mL
Compound: CO/N=C(\C(=O)N[C@@H]1C(=O)N2C(C(=O)O)=C(COC(C)=O)CS[C@H]12)c1csc(N)n1 [Cefotaxime]
Reported MIC Breakpoints ([6]; meningitis): (0.5-2) μg/mL
Observed Disk Diff. Breakpoints R [7]: ≦23 mm
Observed Disk Diff. Breakpoints S [7]: ≧24 mm
Observed Disk Diff. Breakpoints R ([8]; Lower Respiratory Tract): ≦23 mm
Observed Disk Diff. Breakpoints S ([8]; Lower Respiratory Tract): ≧24 mm
Observed Disk Diff. Breakpoints I ([8]; meningitis): 26-27 mm
Observed Disk Diff. Breakpoints R ([8]; meningitis): ≦25 mm
Observed Disk Diff. Breakpoints S ([8]; meningitis): ≧28 mm
Reported MIC Breakpoints [9]: (0.5-2) μg/mL
